According to patent US8063220B2, “Sulfonyl-quinoline derivatives” (Richter Gedeon Nyrt., priority 2007, dated 2011):

Legend:
[1] = molecular target: T1, rat mGluR1 (Rattus norvegicus, UniProt P23385); experiment: MGluR1 receptor binding test ([3H]R214127 displacement, rat cerebellar membrane preparation); conditions: rat mGluR1, [3H]R214127 3 nM; read-out: mGlu1 Ki
T1 construct: rat cerebellar membrane preparation was used; from tissue; host or cells: rat cerebellum (membrane preparation)
Description: MGluR1 receptor binding tests were performed according to modified method of Lavreysen et al. (Mol. Pharm., 2003, 63, 1082). Based on the high homology between the human and rat mGluR1 receptors, rat cerebellar membrane preparation was used to determine the binding characteristics of reference compounds and novel compounds to the rat mGluR1. [3H]R214127 (3 nM) was used as radioligand and the nonspecific binding was determined in the presence of 1 μM of R214127.
IC-50 values were determined from displacement curves by nonlinear regression analysis and were converted to Ki values using the equation method of Cheng and Prusoff (Biochem. Pharmacol., 1973, 22, 3099).

[2] = molecular target: T2, rat mGluR5 (Rattus norvegicus, UniProt P31424); experiment: MGluR5 receptor binding test ([3H]-M-MPEP displacement, rat cerebro-cortical membrane preparation); conditions: rat mGluR5, [3H]-M-MPEP 2 nM; read-out: mGlu5 Ki
T2 construct: Rat cerebro-cortical membrane preparation was used; from tissue; host or cells: rat cerebral cortex (membrane preparation)
Description: Rat cerebro-cortical membrane preparation was used to determine the binding characteristics of reference compounds and novel compounds to the rat mGluR5. The A18 cell line expressing hmGluR5a (purchased from Euroscreen) was used to determine binding characteristics of the chemical compounds to the human mGluR5a receptor. [3H]-M-MPEP (2 nM) was used as radioligand. The nonspecific binding was determined in the presence of 10 μM M-MPEP.

T1 sequence (P23385 19-1199): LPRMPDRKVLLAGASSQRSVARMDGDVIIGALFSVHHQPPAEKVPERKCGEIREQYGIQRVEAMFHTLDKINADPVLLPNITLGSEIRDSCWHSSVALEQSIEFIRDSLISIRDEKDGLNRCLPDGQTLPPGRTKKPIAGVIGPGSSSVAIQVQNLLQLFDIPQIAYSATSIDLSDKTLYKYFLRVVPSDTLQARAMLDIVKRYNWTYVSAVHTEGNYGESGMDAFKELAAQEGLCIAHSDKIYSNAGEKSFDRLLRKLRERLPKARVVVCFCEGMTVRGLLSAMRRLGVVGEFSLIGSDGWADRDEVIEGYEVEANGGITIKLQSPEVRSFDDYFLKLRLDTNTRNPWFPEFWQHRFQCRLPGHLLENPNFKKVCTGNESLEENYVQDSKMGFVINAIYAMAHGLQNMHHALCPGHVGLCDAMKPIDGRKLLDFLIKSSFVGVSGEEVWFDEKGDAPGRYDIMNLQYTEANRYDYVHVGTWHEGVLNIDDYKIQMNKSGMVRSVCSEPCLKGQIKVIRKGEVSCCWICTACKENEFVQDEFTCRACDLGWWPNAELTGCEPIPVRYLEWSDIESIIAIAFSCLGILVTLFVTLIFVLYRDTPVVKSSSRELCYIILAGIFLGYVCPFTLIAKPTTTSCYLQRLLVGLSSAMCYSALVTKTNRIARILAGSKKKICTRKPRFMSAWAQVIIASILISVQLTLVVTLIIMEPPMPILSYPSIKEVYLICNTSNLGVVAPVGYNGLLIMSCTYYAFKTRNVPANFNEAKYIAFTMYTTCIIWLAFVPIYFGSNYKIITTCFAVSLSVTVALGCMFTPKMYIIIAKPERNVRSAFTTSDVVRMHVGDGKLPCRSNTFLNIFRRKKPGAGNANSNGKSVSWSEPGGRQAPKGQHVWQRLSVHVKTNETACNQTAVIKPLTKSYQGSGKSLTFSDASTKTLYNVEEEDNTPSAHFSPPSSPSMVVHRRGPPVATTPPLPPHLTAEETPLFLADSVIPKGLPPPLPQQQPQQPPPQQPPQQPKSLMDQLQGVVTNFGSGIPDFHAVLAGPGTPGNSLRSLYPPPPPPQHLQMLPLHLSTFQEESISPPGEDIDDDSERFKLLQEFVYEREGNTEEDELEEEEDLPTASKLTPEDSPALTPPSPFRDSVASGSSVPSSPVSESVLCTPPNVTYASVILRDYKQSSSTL
T2 sequence (P31424 21-1203): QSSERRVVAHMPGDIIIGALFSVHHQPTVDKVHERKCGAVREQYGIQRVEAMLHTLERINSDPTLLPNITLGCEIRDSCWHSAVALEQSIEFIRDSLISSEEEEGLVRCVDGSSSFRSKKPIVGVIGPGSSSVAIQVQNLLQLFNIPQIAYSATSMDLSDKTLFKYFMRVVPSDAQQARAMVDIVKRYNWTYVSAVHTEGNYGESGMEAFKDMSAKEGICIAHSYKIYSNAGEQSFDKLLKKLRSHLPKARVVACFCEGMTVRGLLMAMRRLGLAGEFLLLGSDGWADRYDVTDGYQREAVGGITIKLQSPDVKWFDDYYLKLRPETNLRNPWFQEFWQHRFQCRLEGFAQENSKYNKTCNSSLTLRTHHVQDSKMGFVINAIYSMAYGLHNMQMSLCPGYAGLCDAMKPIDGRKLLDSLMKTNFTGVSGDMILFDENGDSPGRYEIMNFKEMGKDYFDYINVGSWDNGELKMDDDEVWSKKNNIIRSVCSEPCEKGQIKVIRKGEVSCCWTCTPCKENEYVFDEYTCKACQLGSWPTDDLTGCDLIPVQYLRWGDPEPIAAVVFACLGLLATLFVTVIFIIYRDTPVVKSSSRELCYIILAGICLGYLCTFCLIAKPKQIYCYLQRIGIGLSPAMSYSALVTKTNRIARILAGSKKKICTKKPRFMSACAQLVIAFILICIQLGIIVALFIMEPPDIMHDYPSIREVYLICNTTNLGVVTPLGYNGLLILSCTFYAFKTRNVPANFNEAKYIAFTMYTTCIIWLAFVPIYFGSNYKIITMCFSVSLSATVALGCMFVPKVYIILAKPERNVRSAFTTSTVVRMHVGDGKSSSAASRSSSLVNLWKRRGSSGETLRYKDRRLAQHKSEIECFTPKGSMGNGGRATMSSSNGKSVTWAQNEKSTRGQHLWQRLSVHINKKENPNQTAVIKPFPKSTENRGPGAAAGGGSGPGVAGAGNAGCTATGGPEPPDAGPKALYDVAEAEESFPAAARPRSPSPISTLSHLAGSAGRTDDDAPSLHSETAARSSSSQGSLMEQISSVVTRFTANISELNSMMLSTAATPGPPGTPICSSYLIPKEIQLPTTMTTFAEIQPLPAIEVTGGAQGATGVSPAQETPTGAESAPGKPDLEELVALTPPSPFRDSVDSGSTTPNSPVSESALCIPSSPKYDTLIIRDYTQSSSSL

Row | Ki [1] [nM] | Ki [2] [nM] | Compound
1 | > 500 | < 200 | COc1cccc(-c2c(S(=O)(=O)c3ccc(F)c(Cl)c3)cnc3ccc(F)cc23)c1 [Compound 154]
2 | > 500 | < 200 | COc1cccc(-c2c(S(=O)(=O)c3cc(Cl)cc(Cl)c3)cnc3c(F)cccc23)c1 [Compound 108]
3 | 200 to 500 | < 200 | N#Cc1cccc(S(=O)(=O)c2cnc3ccc(F)cc3c2-c2ccc(F)cc2)c1 [Compound 69]
4 | > 500 | < 200 | COc1cccc(S(=O)(=O)c2cnc3ccc(F)cc3c2-c2ccc(F)cc2)c1 [Compound 73]
5 | > 500 | < 200 | N#Cc1cc(F)cc(S(=O)(=O)c2cnc3ccccc3c2-c2ccc(F)c(F)c2)c1 [Compound 266]
6 | 200 to 500 | < 200 | O=S(=O)(c1ccc(F)c(F)c1)c1cnc2ccc(F)cc2c1-c1cccc(F)c1 [Compound 150]
7 | > 500 | < 200 | COc1cccc(-c2c(S(=O)(=O)c3cccc(C#N)c3)cnc3ccc(F)cc23)c1 [Compound 68, 3-(3-cyano-benzenesulfonyl)-6-fluoro-4-(3-methoxy-phenyl)-quinoline]
8 | > 500 | < 200 | N#Cc1cc(F)cc(S(=O)(=O)c2cnc3cc(F)ccc3c2-c2ccc(F)cc2)c1 [Compound 218]
9 | > 500 | < 200 | O=S(=O)(c1ccc(F)c(F)c1)c1cnc2c(F)cccc2c1-c1ccc(F)c(F)c1 [Compound 238]
10 | > 500 | < 200 | COc1ccc(S(=O)(=O)c2cnc3ccc(F)cc3c2-c2ccc(Cl)cc2)cc1 [Compound 29]
11 | > 500 | < 200 | O=S(=O)(c1cc(Cl)cc(Cl)c1)c1cnc2c(F)cccc2c1-c1ccccc1F [Compound 223]
12 | > 500 | < 200 | O=S(=O)(c1ccc(F)c(Cl)c1)c1cnc2c(F)c(Cl)ccc2c1-c1cccc(F)c1 [Compound 203]
13 | > 500 | < 200 | COc1cccc(S(=O)(=O)c2cnc3ccc(F)cc3c2-c2cccc(Cl)c2)c1 [Compound 72]
14 | > 500 | < 200 | COc1cccc(-c2c(S(=O)(=O)c3cccc(F)c3)cnc3c(F)cccc23)c1 [Compound 62]
15 | > 500 | > 500 | O=S(=O)(c1ccc(F)cc1)c1cnc2ccc(Cl)cc2c1-c1cccc(Cl)c1 [Compound 3]
16 | > 500 | 200 to 500 | N#Cc1ccc2c(-c3ccccc3F)c(S(=O)(=O)c3cc(F)cc(F)c3)cnc2c1 [Compound 199]
17 | > 500 | < 200 | COc1cccc(-c2c(S(=O)(=O)c3ccc(C)c(Cl)c3)cnc3ccc(F)cc23)c1 [Compound 141]
18 | > 500 | < 200 | COc1cccc(-c2c(S(=O)(=O)c3cc(Cl)cc(Cl)c3)cnc3cc(F)ccc23)c1 [Compound 82]
19 | > 500 | < 200 | COc1ccc(-c2c(S(=O)(=O)c3cccc(OC)c3)cnc3ccc(F)cc23)cc1 [Compound 145]
20 | > 500 | < 200 | N#Cc1cc(C#N)cc(S(=O)(=O)c2cnc3cc(F)ccc3c2-c2ccc(F)cc2)c1 [Compound 249]

Row | Ki [1] [nM] | Ki [2] [nM] | Compound
21 | > 500 | < 200 | O=S(=O)(c1cc(F)cc(F)c1)c1cnc2cc(F)ccc2c1-c1ccc(Cl)cc1 [Compound 35, 4-(4-chloro-phenyl)-3-(3,5-difluoro-benzenesulfonyl)-7-fluoro-quinoline]
22 | > 500 | < 200 | COc1cccc(-c2c(S(=O)(=O)c3ccc(F)cc3)cnc3c(F)cccc23)c1 [Compound 23]
23 | > 500 | < 200 | Cc1ccc(S(=O)(=O)c2cnc3cc(F)ccc3c2-c2cccc(F)c2)cc1F [Compound 85]
24 | > 500 | < 200 | O=S(=O)(c1cccc(F)c1)c1cnc2cc(Cl)ccc2c1-c1ccc(F)cc1 [Compound 180]
25 | 200 to 500 | 200 to 500 | O=S(=O)(c1ccc(F)c(F)c1)c1cnc2ccc(F)cc2c1-c1cccc(Cl)c1 [Compound 149]
26 | > 500 | < 200 | O=S(=O)(c1ccc(F)cc1)c1cnc2cc(Cl)ccc2c1-c1cccc(F)c1 [Compound 167]
27 | > 500 | < 200 | COc1cccc(-c2c(S(=O)(=O)c3cc(F)cc(F)c3)cnc3cc(F)ccc23)c1 [Compound 90]
28 | > 500 | < 200 | N#Cc1cc(S(=O)(=O)c2cnc3ccccc3c2-c2cccc(F)c2)ccc1F [Compound 206]
29 | > 500 | < 200 | Cc1ccc(S(=O)(=O)c2cnc3c(F)cccc3c2-c2cccc(Cl)c2)cc1F [Compound 109]
30 | > 500 | > 500 | COc1ccc(S(=O)(=O)c2cnc3ccc(F)cc3c2-c2ccc(F)cc2)cc1Cl [Compound 165]
31 | 200 to 500 | < 200 | O=S(=O)(c1ccc(F)c(Cl)c1)c1cnc2c(F)cccc2c1-c1cccc(Cl)c1 [Compound 229]
32 | > 500 | < 200 | COc1ccc(S(=O)(=O)c2cnc3ccc(F)cc3c2-c2ccc(Cl)cc2)cc1Cl [Compound 78]
33 | > 500 | < 200 | N#Cc1ccc2c(-c3ccccc3F)c(S(=O)(=O)c3ccc(F)c(Cl)c3)cnc2c1 [Compound 195]
34 | > 500 | < 200 | O=S(=O)(c1ccc(F)cc1)c1cnc2cc(F)ccc2c1-c1ccc(Cl)cc1 [Compound 76]
35 | > 500 | < 200 | O=S(=O)(c1cc(F)cc(F)c1)c1cnc2cc(Cl)ccc2c1-c1cccc(F)c1 [Compound 169]
36 | > 500 | < 200 | Cc1ccc(S(=O)(=O)c2cnc3cc(F)ccc3c2-c2cccc(F)c2)cc1Cl [Compound 94]
37 | > 500 | < 200 | COc1cccc(-c2c(S(=O)(=O)c3cc(Cl)cc(Cl)c3)cnc3ccc(F)cc23)c1 [Compound 126]
38 | > 500 | < 200 | COc1cccc(S(=O)(=O)c2cnc3ccc(F)cc3c2-c2ccc(Cl)cc2)c1 [Compound 144]
39 | > 500 | < 200 | N#Cc1cc(S(=O)(=O)c2cnc3ccccc3c2-c2ccc(Cl)cc2)ccc1F [Compound 273]
40 | > 500 | < 200 | O=S(=O)(c1cccc(F)c1)c1cnc2cc(Cl)ccc2c1-c1cccc(F)c1 [Compound 168]

Row | Ki [1] [nM] | Ki [2] [nM] | Compound
41 | > 500 | < 200 | N#Cc1cccc(S(=O)(=O)c2cnc3c(F)cccc3c2-c2cccc(Cl)c2)c1 [Compound 246]
42 | 200 to 500 | < 200 | O=S(=O)(c1cc(F)cc(F)c1)c1cnc2c(F)cccc2c1-c1ccc(Cl)cc1 [Compound 116]
43 | 200 to 500 | < 200 | N#Cc1cc(S(=O)(=O)c2cnc3cc(Cl)ccc3c2-c2ccc(F)cc2)ccc1F [Compound 276]
44 | > 500 | < 200 | O=S(=O)(c1ccc(F)c(Cl)c1)c1cnc2cc(Cl)ccc2c1-c1ccc(Cl)cc1 [Compound 176]
45 | > 500 | < 200 | Cc1ccc(S(=O)(=O)c2cnc3ccc(F)cc3c2-c2cccc(F)c2)cc1Cl [Compound 140]
46 | > 500 | < 200 | N#Cc1cc(F)cc(S(=O)(=O)c2cnc3cc(Cl)ccc3c2-c2ccc(Cl)cc2)c1 [Compound 269]
47 | > 500 | < 200 | COc1cccc(S(=O)(=O)c2cnc3cc(F)ccc3c2-c2ccc(F)cc2)c1 [Compound 44]
48 | > 500 | < 200 | N#Cc1cccc(S(=O)(=O)c2cnc3ccccc3c2-c2cccc(F)c2)c1 [Compound 214]
49 | > 500 | < 200 | O=S(=O)(c1ccc(F)c(F)c1)c1cnc2cc(Cl)ccc2c1-c1ccc(Cl)cc1 [Compound 175]
50 | < 200 | < 200 | O=S(=O)(c1ccc(F)c(Cl)c1)c1cnc2cc(F)ccc2c1-c1ccc(F)cc1 [Compound 105]
51 | > 500 | < 200 | N#Cc1cc(F)cc(S(=O)(=O)c2cnc3cc(F)ccc3c2-c2cccc(F)c2)c1 [Compound 228]
52 | > 500 | < 200 | COc1ccc(S(=O)(=O)c2cnc3c(F)cccc3c2-c2cccc(Cl)c2)cc1 [Compound 53, 4-(3-chloro-phenyl)-8-fluoro-3-(4-methoxy-benzenesulfonyl)-quinoline]
53 | 200 to 500 | < 200 | O=S(=O)(c1cccc(F)c1)c1cnc2c(F)cccc2c1-c1cccc(F)c1 [Compound 60]
54 | > 500 | < 200 | O=S(=O)(c1ccc(F)c(F)c1)c1cnc2cc(Cl)ccc2c1-c1cccc(F)c1 [Compound 170, 7-chloro-3-(3,4-difluoro-benzenesulfonyl)-4-(3-fluoro-phenyl)-quinoline]
55 | > 500 | > 500 | COc1ccc(S(=O)(=O)c2cnc3ccc(F)cc3c2-c2ccc(Cl)cc2)cc1OC [Compound 164]
56 | < 200 | < 200 | N#Cc1cc(S(=O)(=O)c2cnc3cc(Cl)ccc3c2-c2cccc(F)c2)ccc1F [Compound 219]
57 | > 500 | < 200 | O=S(=O)(c1cc(Cl)cc(Cl)c1)c1cnc2c(F)cccc2c1-c1cccc(F)c1 [Compound 106]
58 | 200 to 500 | < 200 | N#Cc1cc(F)cc(S(=O)(=O)c2cnc3cc(Cl)ccc3c2-c2cccc(Cl)c2)c1 [Compound 250]
59 | 200 to 500 | < 200 | O=S(=O)(c1ccc(F)c(Cl)c1)c1cnc2ccc(F)cc2c1-c1ccc(Cl)cc1 [Compound 153]
